The values that follow come from patent publication US20260294845A1, “Uses of Adrenalone to Manage Cardiotoxicity or Cardiovascular Disorders” (Emory University, priority 2023, published 2026).

Molecules are shown by their SMILES. Entries after “also recorded” stand apart in the source; their conditions may differ.

In data set [1] the test system is hiPSC-CMs. Briefly: Effects of chemotherapeutic agents on function of hiPSC-CMs. The data set is classed as cell-based, human. The conditions noted are these: carfilzomib treatment.
Data set [2] relates to hiPSC-CMs. Nature of the data set: Cell viability of hiPSC-CMs treated with carfilzomib with or without 4H10 (CellTiter-Blue). The conditions noted are these: carfilzomib 5 μM alone, 24 h, IMR-90 hiPSC-CMs, compared with DMSO. The class given is cell-based, human. As to the method:
Cell viability was analyzed after IMR-90 hiPSC-CMs were treated with carfilzomib (CFZ) with or without 4H10 for 24 hours. (n=5 cultures).
(§1) A human induced pluripotent cell line (hiPSC line IMR90™, WiCell Research Institute) was fed daily on Matrigel™-coated plates with a defined medium for hiPSC culture, mTeSR1 medium. For CM differentiation, hiPSCs were induced using a growth factor-driven differentiation protocol as reported in Jha et al. Efficient differentiation of cardiomyocytes from human pluripotent stem cells with growth factors. Methods Mol Biol, 2015, 1299, 115-131. On the day of induction (day 0), medium was replaced with RPMI 1640 medium supplemented with 2% B27 minus insulin (a cell culture supplement) containing 100 ng/ml activin A. After induction for 24 h, the medium was replaced with fresh RPMI supplemented with 2% B27 minus insulin containing 10 ng/ml BMP4. From day 4 of differentiation, the medium was replaced with RPMI supplemented with 2% B27. On day 5, the cells were dissociated and reseeded into AggreWell400™ plates to acquire cardiac spheres. After 24 h, the cardiac spheres formed were collected and transferred to low-adhesion dishes for suspension culture. The medium was changed every other day. Cardiac spheres typically started beating spontaneously by day 7 to 9.
Cardiomyocytes derived from human pluripotent stem cells (hiPSC-CMs) were provide a new platform for the studies of cancer drug-induced side effects and therapies. Using these cells, lead molecules were identified indicating protective properties on cardiomyocytes from the toxic effect of chemotherapy agents and ethanol (EtOH). […] Oxidative stress is a common molecular mechanism for cardiotoxicity induced by chemotherapy including proteosome inhibitors.
Consistently, treatment of hiPSC-CMs induced cell death and cytotoxicity. To examine if 4H10 could protect cardiomyocytes from carfilzomib-induced cytotoxicity, hiPSC-CMs were treated with carfilzomib at 5 μM alone or together with 4H10 at various concentrations for 24 h and then examined cell viability using the CellTiter-Blue Cell Viability Assay. Cells treated with DMSO (vehicle) were used as a control.

For data set [3], the system named is hiPSC-CMs. Nature of the data set: Intracellular oxidative stress (ROS) of carfilzomib-treated hiPSC-CMs, DCFDA/H2DCFDA assay. The data set is classed as cell-based, human. To be noted: carfilzomib 5 μM alone, 24 h, SCVI hiPSC-CMs. As for the experimental part:
The quantification of oxidative stress was performed using DCFDA staining of SCVI hiPSC-CMs treated with Cfz with or without 4H10 for 24 hours.
The induction of oxidative stress is a crucial mechanism through which proteasome inhibitors induce apoptosis. To investigate if 4H10 could alleviate carfilzomib-induced increase of oxidative stress in cardiomyocytes, hiPSC-CMs were exposed to carfilzomib at 5 μM alone or together with 4H10 at various concentrations for 24 h. The production of cellular reactive oxygen species (ROS) was then measured using DCFDA/H2DCFDA assay kit.

The next data set has as its system RPMI8226 cells. Nature of the data set: Cell viability of RPMI8226 cells after carfilzomib with or without 4H10. The conditions noted are these: carfilzomib, 24 h, compared to DMSO. The class given is cell-based. As for the experimental part: (§2) (top) Proteasome activity of IMR-90 hiPSC-CMs was measured after the cells were treated with CFZ with or without 4H10 for 24 hours. (bottom, right, left) Proteasome activity and cell viability of RPMI8226 cells (cancer cells) were measured after the cells were treated with CFZ with or without 4H10 for 24 hours.
(§3) Experiments were designed to determine the effects of carfilzomib and 4H10 on proteasome activity and cell viability of RPMI8226 cell line, which has been investigated for the efficacy tests of carfilzomib in […].

The next data set deals with patients. The conditions noted are these: among the proteosome inhibitors; cited from earlier work.
Data set [4] has as its system proteasome. Nature of the data set: Proteasome activity in hiPSC-CMs after carfilzomib with or without 4H10. The data set is classed as cell-based, human. The conditions noted are these: carfilzomib, 24 h, IMR-90 hiPSC-CMs, compared with DMSO. As to the method:
as §2
The proteasome, responsible for the regulated degradation of proteins, is a key cellular component targeted by carfilzomib as part of its mechanism of action in cancer therapy. Therefore, in addition to validation of cardioprotective effects of 4H10 on cell viability and mitochondrial function, it is crucial to examine if 4H10 compromises the proteasome inhibition efficacy of carfilzomib.

In data set [5] the test system is hiPSC-CMs. To be noted: carfilzomib; Forghani et al., 2021; cited from earlier work.
For data set [6] the following is noted: carfilzomib, serum; read-out: maximum (or peak) serum concentration, Cmax; cited from earlier work.
For data set [7], the system named is hiPSC-CMs. Nature of the data set: MitoTracker Red staining (mitochondrial content and activity) of carfilzomib-treated hiPSC-CMs, high-content imaging. The data set is classed as cell-based, human. To be noted: carfilzomib alone, 24 h, IMR-90 hiPSC-CMs. As for the experimental part: MitoTracker™ Red staining was performed in IMR-90 hiPSC-CMs treated with CFZ with or without 4H10 for 24 hours.
as §1
Mitochondria play a crucial role in energy production, cellular metabolism, and the regulation of cell death. Experiments indicate carfilzomib induces mitochondrial dysfunction in hiPSC-CMs. To assess the potential mitigating effects of 4H10 on carfilzomib-induced mitochondrial dysfunction, hiPSC-CMs were treated with carfilzomib alone or co-treated with 4H10 at various concentrations. Mitochondria were then visualized using MitoTracker™ Red dyes, which can accumulate in active mitochondria and allow for the measurement of mitochondrial content and activity in live cells.

Data set [8] concerns proteasome. Nature of the data set: Proteasome activity in RPMI8226 cells after carfilzomib with or without 4H10. The data set is classed as cell-based. To be noted: carfilzomib, 24 h, compared to DMSO. As to the method: as §2, §3

As for `CC(C)C[C@H](NC(=O)[C@H](CCc1ccccc1)NC(=O)CN1CCOCC1)C(=O)N[C@@H](Cc1ccccc1)C(=O)N[C@@H](CC(C)C)C(=O)[C@@]1(C)CO1` [carfilzomib], in the data set with hiPSC-CMs [1], the “Ca^2+ handling of hiPSC-CMs” value is recorded as “negatively affects”, the “contractility of hiPSC-CMs” value is on record as “negatively affects”, the “mitochondrial function of hiPSC-CMs” value was “negatively affects” and the “traction forces of hiPSC-CMs” value was “negatively affects”. For the same compound, the “cell viability (cytotoxicity) after carfilzomib” value in the data set with hiPSC-CMs [2] was “caused cytotoxicity; also recorded: significant decrease in cell viability”. Moreover, the “DCFDA fluorescence intensity (oxidative stress)” value in the data set with hiPSC-CMs [3] is listed as “significant increase in DCFDA fluorescence intensity”. The “viability of RPMI8226 cells” value in the data set with RPMI8226 cells is listed as “significantly decreased the viability”. Moreover, the cardiotoxicity in clinic result in the data set with patients is “highest cardiotoxicity in clinic”. The cellular proteasome activity result in the data set on proteasome [4] is given as “significant decrease in cellular proteasome activity”. Besides, the “molecular and functional alterations of hiPSC-CMs” value with hiPSC-CMs [5] was “causes molecular and functional alterations”. For the same compound, the Cmax in data set [6] was 5.88 µM. Also, the “mitochondrial mass and activity (MitoTracker Red fluorescence intensity)” value in the data set with hiPSC-CMs [7] was “reduction in mitochondrial mass and activity”. Also, the “proteasome activity in RPMI8226 cells” value in the data set on proteasome [8] was “suppressed”.
